The values that follow come from ChEMBL document CHEMBL1121481, “Synthetic immunostimulants derived from the bacterial cell wall” (J Med Chem, 1980).

For assay [1], the system named is Mus musculus. Put plainly: Compound was tested for protective activity in mice infected with Klebsiella pneumoniae; compound is pyrogenic at 1 mg/kg. Format: functional, organism-based. Details: dose 1 mg/kg.
Assay [2] relates to Mus musculus. Put plainly: Compound was tested for antibody titer in mice after injection with antigen in saline; compound is pyrogenic at 1 mg/kg. The class given is functional, organism-based. On the set-up: dose 1 mg/kg.
The test system of assay [3] is Limulus. The assay is described as follows: Compound was evaluated by Limulus amoebocyte lysate test; positive at 100 ug/mL. The class given is functional.
The species named for assay [4] is Oryctolagus cuniculus. The assay is described as follows: Compound was tested for pyrogenicity in the rabbit; pyrogenic at 100 ug/mL. The class given is functional, organism-based.
In assay [5] the test system is Cavia porcellus. Put plainly: Compound was tested for delayed hypersensitivity in guinea pig after administration in a water in oil emulsion; compound is pyrogenic at 1 mg/kg. The class given is functional, organism-based. On the set-up: dose 1 mg/kg.
For assay [6], the system named is Mus musculus. The assay is described as follows: Compound was tested for [3H]- -thymidine uptake in mouse spleen cell cultures; compound is pyrogenic at 1 mg/kg. Format: functional, organism-based. Details: dose 1 mg/kg.
The species named for assay [7] is Oryctolagus cuniculus. The assay is described as follows: Compound was tested for pyrogenicity in the rabbit; Delayed hypersensitivity. Format: functional, organism-based.
Assay [8] concerns Mus musculus. Put plainly: Compound was tested for protective activity in mice infected with Klebsiella pneumoniae; non pyrogenic at 1 mg/kg. The class given is functional, organism-based. Details: dose 1 mg/kg.
For assay [9], the system named is Limulus. Put plainly: Compound was evaluated by Limulus amoebocyte lysate test; Positive at 100 ug/mL. The class given is functional, organism-based.
Assay [10] has as its system Mus musculus. Put plainly: Compound was tested for [3H]thymidine uptake in mouse spleen cell cultures; compound is pyrogenic at 1 mg/kg. The class given is functional, organism-based. On the set-up: dose 1 mg/kg.
The test system of assay [11] is Limulus. The assay is described as follows: Compound was evaluated by Limulus amoebocyte lysate test; negative at 100 ug/mL. Format: functional, organism-based.
For assay [12], the system named is Mus musculus. The assay is described as follows: Compound was tested for protective activity in mice infected with Klebsiella pneumoniae; compound is non pyrogenic at 1 mg/kg. The class given is functional, organism-based. On the set-up: dose 1 mg/kg.
The subject of assay [13] is Oryctolagus cuniculus. The assay is described as follows: Compound was tested for pyrogenicity in the rabbit; non pyrogenic at 1 mg/kg. The class given is functional, organism-based. On the set-up: dose 1 mg/kg.
Assay [14] concerns Cavia porcellus. Put plainly: Compound was tested for delayed hypersensitivity in guinea pig after administration in a water in oil emulsion; compound is non pyrogenic at 1 mg/kg. The class given is functional, organism-based. Details: dose 1 mg/kg.
Assay [15] has as its system Mus musculus. The assay is described as follows: Compound was tested for antibody titer in mice after injection with antigen in saline;compound is pyrogenic at 1 mg/kg. The class given is functional, organism-based. Details: dose 1 mg/kg.
Assay [16] relates to Limulus. The assay is described as follows: Compound was evaluated by Limulus amoebocyte lysate test; positive at 10 ug/mL. Format: functional, organism-based.
For assay [17], the species on record is Oryctolagus cuniculus. Put plainly: Compound was tested for pyrogenicity in the rabbit; non pyrogenic at […]. The class given is functional, organism-based.
The subject of assay [18] is Cavia porcellus. Put plainly: Compound was tested for delayed hypersensitivity in guinea pig after administration in a water in oil emulsion; non pyrogenic at 1 mg/kg. Format: functional, organism-based. On the set-up: dose 1 mg/kg.

As to `CC(=O)N[C@H]1C(O)O[C@H](CO)[C@@H](O)[C@@H]1O[C@H](C)C(=O)N[C@@H](C)C(=O)N[C@H](CCC(=O)O)C(N)=O` (stereo partly specified), the Anti-infectious effect entry in the assay on Mus musculus [1] is “pyrogenic at 1 mg/kg”. The Adjuvant effect entry in the assay with Mus musculus [2] and with Cavia porcellus [5] was “pyrogenic at 1 mg/kg” in each case. For the same molecule, the LAL test result in the assay on Limulus [3] was “positive at 100 ug/mL”. Moreover, the Pyrogenic effect entry in the assay listed under Oryctolagus cuniculus [4] is reported as “pyrogenic at 100 ug/mL”. For the same molecule, the Mitogenic effect result in the assay on Mus musculus [6] is on record as “pyrogenic at 1 mg/kg”.
In the case of `COC(=O)C(CCC(N)=O)NC(=O)C(C)NC(=O)C(C)OC1[C@H](O)C(CO)O[C@@H](O)[C@H]1NC(C)=O` (stereo partly specified), the Pyrogenic effect entry in the assay filed under Oryctolagus cuniculus [7] was “Not toxic”. Moreover, the Adjuvant effect entry in the assay with Mus musculus [2] and in the assay with Cavia porcellus [5] was “pyrogenic at 1 mg/kg” throughout. Moreover, in the assay with Limulus [3], the LAL test result was “positive at 100 ug/mL”. Moreover, the Anti-infectious effect entry with Mus musculus [8] was “Not toxic”. Moreover, in the assay with Mus musculus [6], the Mitogenic effect entry is given as “pyrogenic at 1 mg/kg”.
In the case of `COC(=O)CCC(NC(=O)C(C)NC(=O)C(C)OC1[C@H](O)C(CO)O[C@@H](O)[C@H]1NC(C)=O)C(=O)OC` (stereo partly specified), the Pyrogenic effect result in the assay listed under Oryctolagus cuniculus [7] was “Not toxic”. Also, the LAL test result in the assay with Limulus [9] is “Positive at 100 ug/mL”. Moreover, the Anti-infectious effect entry in the assay on Mus musculus [1] is “pyrogenic at 1 mg/kg”. Also, the Adjuvant effect entry in the assay on Mus musculus [2] and with Cavia porcellus [5] was “pyrogenic at 1 mg/kg” each time. For the same molecule, the Mitogenic effect result with Mus musculus [10] is given as “pyrogenic at 1 mg/kg”.
Take `CC(=O)N[C@H]1[C@@H](O[C@@H](C)C(=O)N[C@@H](C)C(=O)N[C@H](CCC(=O)N[C@@H](CCCCN)C(=O)N[C@H](C)C(=O)O)C(N)=O)[C@H](O)[C@H](CO)O[C@H]1O`: the Adjuvant effect entry with Mus musculus [2] and in the assay on Cavia porcellus [5] was “pyrogenic at 1 mg/kg” throughout. The Pyrogenic effect entry in the assay listed under Oryctolagus cuniculus [4] was “pyrogenic at 100 ug/mL”. Also, in the assay on Limulus [11], the LAL test result was “Not toxic”. Besides, the Anti-infectious effect result with Mus musculus [12] is “Not toxic”. In addition, the Mitogenic effect entry with Mus musculus [6] was “pyrogenic at 1 mg/kg”.
Regarding `CC(=O)N[C@H]1C(OC(C)C(=O)NC(C)C(=O)NC(CCC(=O)O)C(=O)O)[C@H](O)C(CO)O[C@H]1O` (stereo partly specified), in the assay with Oryctolagus cuniculus [13], the Pyrogenic effect result is “Not toxic”. Moreover, the Anti-infectious effect result in the assay on Mus musculus [1] is given as “pyrogenic at 1 mg/kg”. Also, the Adjuvant effect entry was “pyrogenic at 1 mg/kg” in the assay with Mus musculus [2] and “Not toxic” in the assay on Cavia porcellus [14]. Moreover, the LAL test result with Limulus [11] is “negative at 100 ug/mL”. Besides, the Mitogenic effect entry with Mus musculus [6] is recorded as “pyrogenic at 1 mg/kg”.
`CC(=O)N[C@H]1C(OC(C)C(=O)NC(C)C(=O)NC(CCC(N)=O)C(=O)O)[C@H](O)C(CO)O[C@H]1O` (stereo partly specified): in the assay with Mus musculus [1], the Anti-infectious effect result is “pyrogenic at 1 mg/kg”. Besides, the Adjuvant effect entry with Mus musculus [15] is “pyrogenic at 1 mg/kg”; with Cavia porcellus [18] it was “Not toxic”. Also, in the assay with Limulus [16], the LAL test entry was “positive at 10 ug/mL”. For the same molecule, the Pyrogenic effect result in the assay listed under Oryctolagus cuniculus [17] was “Not toxic”. Further, in the assay on Mus musculus [6], the Mitogenic effect result is “pyrogenic at 1 mg/kg”.
